Laboratory results reported in paper PMC8819291, “Adaptively evolved human oral actinomyces‐sourced defensins show therapeutic potential” (EMBO Molecular Medicine, 2021).
Entries after “also recorded” stand apart in the source; their conditions may differ. Where a SMILES comes first, the peptide text is derived from it. Bridges are numbered along the chain shown (N, C = ends).

Tests used:
[1] = test system: SP D39; experiment: Mouse lung infection model
Method: To this end, ICR female mice (30 g each mouse; 9–10 weeks of age) were anesthetized with 1.25% 2,2,2‐Tribromoethanol (Avertin) (Macklin, Shanghai, China) and hung by their front teeth on a steel wire. Then, they were inoculated intranasally with 10–20 µl bacterial suspension of SP D39 of fresh overnight culture (1.5 × 10^6 CFU per mouse) and then were removed from the wire to their cages. A control group of untreated mice was included. […] Mice were treated with penicillin as a positive control. At 48 h post‐infection, the mice were sacrificed and lungs removed and homogenized in 0.9% saline. Colony counts from lung homogenates were determined and the total number of colonies/lungs per mouse was calculated. Schematic representation is provided in Appendix Fig S16B.

[2] = test system: SP R6; experiment: RNA sequencing of the stimulon; assay type: cell-based, Streptococcus pneumoniae; settings: sub‐lethal concentration, 10 min
Method: Cells were harvested and washed with PBS buffer (pH 7.3) following further incubation for 10 min. Total RNA was isolated using the Bacteria Total RNA Isolation Kit (Sangon, China) according to the manufacturer’s instruction. RNA quality was assessed by NanoDrop and Agilent 2100 Bioanalyzer (Table EV6). After enrichment and fragment, mRNA was reverse transcribed into single‐strand DNA and then synthesized into double‐strand DNA. Following end‐filling, 5′‐phosphorylation, bubble adaptor ligation, and PCR amplification, a single‐strand circled DNA library was established for sequencing in BGISEQ‐500 sequencer (BGI, China) with a combinatorial probe‐anchor synthesis (cPAS) strategy.

[3] = test system: MRSA P1374; experiment: Mouse peritonitis model; assay type: in vivo
Method: ICR male mice (30 g each mouse; 6 weeks of age) were infected with 0.5 ml of bacterial suspension (1 × 10^8 CFU per mouse) via intraperitoneal injection (i.p.), a dose that achieved 100% mortality within 24 h after infection. […] Vehicle (0.9%) treated control group included 11 mice. Schematic representation is provided in Appendix Fig S16C.

[4] = test system: gram‐positive bacteria; experiment: Inhibition-zone assay, groups of strains; assay type: cell-based
Text: Bacterial media used here included: Luria‐Bertani (LB) medium, THY medium (30 g Todd Hewitt broth and 5 g Yeast extract per liter), and tryptic soy broth (TSB) (Oxoid, Basingstoke, UK); Broth medium and brain–heart infusion (BHI) medium (Beijing Landbridge technology Limited by Share Ltd., Beijing, China); Potato dextrose (PD) medium (self‐prepared).
In brief, an overnight bacterial culture from a single colony was inoculated into fresh medium and grew to late log‐phase. A 10‐μl aliquot of each culture was diluted in 6‐ml pre‐heated medium containing 0.8% agar. The mixture was spread on a 9‐cm Petri dish, giving a depth of 1 mm. After settling, 3‐mm wells were punched in the plate and then 2‐μl peptide samples of different concentrations were added to each well. The agar plates were incubated overnight at indicated temperatures (Table EV4). A lethal concentration (C L ) was calculated from a plot of d^2 against log n, where d is the diameter (in cm) and n is the amount of sample applied in the well (in nmol). The plot is linear, and thus C L can be calculated from the slope (k) and the intercept (m) of this plot.

[5] = test system: A549 cells; experiment: Peptide-induced IL-8 release (ELISA); assay type: cell-based, human; settings: 24 h
Method: A549 and HL‐60 cells were purchased from the Cell Resource Center of the Chinese Academy of Medical Sciences (Beijing, China). They were tested for mycoplasma contamination with the Mycoplasma Detection Kit (Solarbio, China) and only negative cultures were used in our experiments. The cells were cultured in complete Dulbecco’s Modified Eagle Medium (DMEM) supplemented with 10% fetal bovine serum (FBS), penicillin (100 units/ml), and streptomycin ([…]) at 37°C in 5% CO2. The culture medium was changed every 2 days. Cells were passaged every 4–5 days with 0.25% trypsin (Gibco, USA). For enzyme‐linked immunosorbent assay (ELISA) (Hara et al, [2008]), A549 or HL‐60 cells were seeded in six‐well plates at a density of 1 × 10^5 cells/well and were incubated at 37°C in 5% CO2 overnight. Medium was aspirated and replaced with fresh complete DMEM supplemented with 10% FBS or serum‐free medium, both containing different concentrations of polypeptides for 24 h. Then, the supernatants were harvested for quantification of the IL‐8 amount in A549 by the Human CXCL8/IL‐8 Quantikine ELISA Kit (R&D Systems Inc., Minneapolis, MN, USA) and the MCP‐1 amount in HL‐60 by the Human MCP‐1 ELISA Kit (Boster Biological Technology Co., Ltd, Wuhan, China) as per the manufactures’ instructions.

Q: `CC[C@H](C)[C@@H]1NC(=O)[C@H](CCCCN)NC(=O)CNC(=O)[C@H](CCCNC(=N)N)NC(=O)[C@@H]2CSSC[C@H](NC(=O)CNC(=O)[C@H](Cc3ccccc3)NC(=O)CN)C(=O)N3CCC[C@H]3C(=O)N[C@@H](Cc3c[nH]c4ccccc34)C(=O)N[C@@H](CC(N)=O)C(=O)N[C@@H](C)C(=O)N[C@@H](Cc3ccc(O)cc3)C(=O)N[C@@H](CCC(=O)O)C(=O)N[C@H]3CSSC[C@H](NC(=O)[C@H]([C@@H](C)O)NC(=O)[C@H](CCC(N)=O)NC(=O)[C@H](CCCNC(=N)N)NC1=O)C(=O)N[C@@H](Cc1c[nH]cn1)C(=O)N[C@H](C(=O)N[C@@H](Cc1ccc(O)cc1)C(=O)O)CSSC[C@H](NC(=O)[C@H](Cc1c[nH]cn1)NC(=O)[C@H](CCCNC(=N)N)NC(=O)[C@H](CC(=O)O)NC3=O)C(=O)N[C@@H](C(C)C)C(=O)N[C@@H](CO)C(=O)N[C@@H](CCCCN)C(=O)NCC(=O)N[C@@H](Cc1ccc(O)cc1)C(=O)N[C@@H]([C@@H](C)O)C(=O)NCC(=O)NCC(=O)N[C@@H](CC(N)=O)C(=O)N2` [AMSIN] (H-GFGCPWNAYECDRHCVSKGYTGGNCRGKIRQTCHCY-OH; disulfide 4-25, 11-33, 15-35; N-terminus and C-terminus assumed) was tested. Which “Log10 (CFU per lung)” value ([1]; 8.35 mg/kg i.m. 24 h after intranasal SP D39, lungs at 48 h post‐infection, animal 1) did it give?
A: The value was 3.3 Log10 (CFU per lung).

Q: What about the “Log10 (CFU per lung)” value ([1]; 8.35 mg/kg i.m., animal 2) of the same compound?
A: Its value is 3.48 Log10 (CFU per lung).

Q: What about the “Log10 (CFU per lung)” value ([1]; 8.35 mg/kg i.m., animal 3) of the same compound?
A: The value was 3.3 Log10 (CFU per lung).

Q: What about the “Log10 (CFU per lung)” value ([1]; 8.35 mg/kg i.m., animal 4) of the same compound?
A: Its value is 3 Log10 (CFU per lung).

Q: What about the “Log10 (CFU per lung)” value ([1]; 8.35 mg/kg i.m., animal 5) of the same compound?
A: Its value is 3.78 Log10 (CFU per lung).

Q: What about the “Log10 (CFU per lung)” value ([1]; 16.7 mg/kg i.m., animal 1) of the same compound?
A: Its value is 3.89 Log10 (CFU per lung).

Q: What about the “Log10 (CFU per lung)” value ([1]; 16.7 mg/kg i.m., animal 2) of the same compound?
A: Its value is 1.48 Log10 (CFU per lung).

Q: What about the “Log10 (CFU per lung)” value ([1]; 16.7 mg/kg i.m., animal 3) of the same compound?
A: Its value is 1 Log10 (CFU per lung).

Q: And the “Log10 (CFU per lung)” value ([1]; 16.7 mg/kg i.m., animal 4)?
A: The value was 4.2 Log10 (CFU per lung).

Q: And the “Log10 (CFU per lung)” value ([1]; 16.7 mg/kg i.m., animal 5)?
A: The value was 1.6 Log10 (CFU per lung).

Q: And the “Log10 (CFU per lung)” value ([1]; 33 mg/kg i.m., animal 1)?
A: The value was 1 Log10 (CFU per lung).

Q: And the “Log10 (CFU per lung)” value ([1]; 33 mg/kg i.m., animal 2)?
A: Its value is 1.3 Log10 (CFU per lung).

Q: What about the “Log10 (CFU per lung)” value ([1]; 33 mg/kg i.m., animal 3) of the same compound?
A: The value was 1 Log10 (CFU per lung).

Q: What about the “Log10 (CFU per lung)” value ([1]; 33 mg/kg i.m., animal 4) of the same compound?
A: Its value is 1.3 Log10 (CFU per lung).

Q: What about the “Log10 (CFU per lung)” value ([1]; 33 mg/kg i.m., animal 5) of the same compound?
A: The value was 1.48 Log10 (CFU per lung).

Q: And the “Reduction of CFU in lungs” value ([1]; different doses (8.35, 16.7, 33 mg per kg i.m.))?
A: Its value is 4.6–6.7 log10.

Q: And the “Toxicity of administration route in the model” value ([1]; intramuscular injection (i.m.))?
A: The value was “no obvious toxicity”.

Q: What about the “Transcriptional profile compared with vancomycin” value [2] of the same compound?
A: Its value is “partly overlapped”.

Q: What about the “Survival after peritoneal infection with MRSA P1374” value ([3]; 1 × 10^8 CFU i.p., AMSIN i.v. 1 h post‐infection 20 mg per kg, then 10 mg per kg once daily, six mice, 7‐day study period) of the same compound?
A: Its value is “all survived; also recorded: survived the 7‐day study period”.

Q: What about the “Toxicity of administration route in the model” value ([3]; intravenous injection (i.v.)) of the same compound?
A: Its value is “no obvious toxicity”.

Q: And the “Duration of continued survival” value ([3]; same six treated mice, observation period)?
A: Its value is over 30 days.

Q: And the “Lethal concentrations (C L)” value ([4]; SP (strains D39, R6, ST556, and TIGR4))?
A: The value was “about 0.10 μM”.

Q: What about the “C L” value ([4]; three oral Streptococcus bacteria (S. mutans, S. salivarius, and S. sanguinis)) of the same compound?
A: The value was 0.5 to 1.4 µM.

Q: What about the “IL-8” value ([5]; FBS-containing medium, 25 μg/mL, replicate 1) of the same compound?
A: The value was 93 pg/mL.

Q: What about the “IL-8” value ([5]; FBS-containing medium, 25 μg/mL, replicate 2) of the same compound?
A: The value was 101 pg/mL.

Q: What about the “IL-8” value ([5]; FBS-containing medium, 25 μg/mL, replicate 3) of the same compound?
A: Its value is 99 pg/mL.

Q: And the “IL-8” value ([5]; FBS-containing medium, 50 μg/mL, replicate 1)?
A: Its value is 116 pg/mL.

Q: What about the “IL-8” value ([5]; FBS-containing medium, 50 μg/mL, replicate 2) of the same compound?
A: The value was 121 pg/mL.

Q: What about the “IL-8” value ([5]; FBS-containing medium, 50 μg/mL, replicate 3) of the same compound?
A: Its value is 122 pg/mL.

Q: And the “IL-8” value ([5]; FBS-containing medium, 100 μg/mL, replicate 1)?
A: The value was 111 pg/mL.

Q: What about the “IL-8” value ([5]; FBS-containing medium, 100 μg/mL, replicate 2) of the same compound?
A: The value was 103 pg/mL.

Q: What about the “IL-8” value ([5]; FBS-containing medium, 100 μg/mL, replicate 3) of the same compound?
A: Its value is 106 pg/mL.

Q: And the “IL-8” value ([5]; Serum-Free medium, 25 μg/mL, replicate 1)?
A: Its value is 51 pg/mL.

Q: What about the “IL-8” value ([5]; Serum-Free medium, 25 μg/mL, replicate 2) of the same compound?
A: The value was 40 pg/mL.

Q: And the “IL-8” value ([5]; Serum-Free medium, 25 μg/mL, replicate 3)?
A: Its value is 42 pg/mL.

Q: What about the “IL-8” value ([5]; Serum-Free medium, 50 μg/mL, replicate 1) of the same compound?
A: The value was 40 pg/mL.

Q: And the “IL-8” value ([5]; Serum-Free medium, 50 μg/mL, replicate 2)?
A: Its value is 48 pg/mL.

Q: And the “IL-8” value ([5]; Serum-Free medium, 50 μg/mL, replicate 3)?
A: Its value is 42 pg/mL.

Q: What about the “IL-8” value ([5]; Serum-Free medium, 100 μg/mL, replicate 1) of the same compound?
A: Its value is 67 pg/mL.

Q: What about the “IL-8” value ([5]; Serum-Free medium, 100 μg/mL, replicate 2) of the same compound?
A: The value was 78 pg/mL.

Q: What about the “IL-8” value ([5]; Serum-Free medium, 100 μg/mL, replicate 3) of the same compound?
A: The value was 67 pg/mL.
